# System: A549 cells
# Experiment: Cytotoxicity against A549 cells, Alamar Blue
# Format: cell-based
# Conditions: Homo sapiens, A549, 65 h; Supplementary Table 1; compound 0.5 mM; percentage of controls (n=1)
# Procedure, shortened: (§1)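 Alamar Blue read-out after a 5 h dye incubation that followed ~65 h compound exposure. Cells: HeLa or A549, 2 × 10^4/well, DMEM + 10% FCS + 2 mM L-Glutamine.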
row,Compound,viability at 500 µM [%]
1,"FC(F)(F)c1nc2ccccc2[nH]1 [compound 499, 2‐(trifluoromethyl)‐1H‐benzo[d]imidazole]",116
2,"N#Cc1ccc(N)cc1C(F)(F)F [compound 500, 4‐amino‐2‐(trifluoromethyl)benzonitrile]",72.8
3,"Oc1ccc(Oc2ccccc2)cc1 [compound 502, 4‐phenoxyphenol]",53.1
4,"OCc1cccc(-c2cncnc2)c1 [compound 504, (3‐pyrimidin‐5‐ylphenyl)methanol]",88.2
5,"OCc1ccc(-c2cncnc2)cc1 [compound 505, (4‐pyrimidin‐5‐ylphenyl)methanol]",85.3
6,"Nc1ccc(Oc2ccccc2)nc1 [compound 507, 6‐phenoxy‐3‐pyridinamine]",71.8
7,"O=C(O)c1ccc(-n2cccc2)cc1 [compound 512, 4‐(1H‐pyrrol‐1‐yl)benzoic acid]",63.2
8,"COC(=O)c1cc2ccccc2cn1 [compound 514, methyl isoquinoline‐3‐carboxylate]",65.3
9,"COC(=O)c1ccc2ncccc2c1 [compound 515, methyl quinoline‐6‐carboxylate]",67.8
10,"N#Cc1ccc(N2CCNCC2)cc1 [compound 518, 4‐Piperazin‐1‐yl‐benzonitrile]",84.7
11,"NC(=O)Cc1ccc(F)cc1Cl [compound 519, 2‐(2‐chloro‐4‐fluorophenyl)acetamide]",102
12,"OCc1nccn1Cc1ccccc1 [compound 526, (1‐benzyl‐1H‐imidazol‐2‐yl)methanol]",58
13,"Cc1onc(-c2ccccc2)c1CO [compound 534, (5‐methyl‐3‐phenyl‐4‐isoxazolyl)methanol]",62.9
14,"O=C(O)c1ccc(C(F)(F)F)cc1 [compound 539, 4‐(trifluoromethyl)benzoic acid]",104
15,"OCc1ccc(Oc2ccccc2)o1 [compound 540, (5‐phenoxy‐2‐furyl)methanol]",57.7
16,"CN(C)CCOc1ccc(C#N)cc1 [compound 542, 4‐[2‐(dimethylamino)ethoxy]benzonitrile]",69.7
17,"OCc1ccccc1-c1cccs1 [compound 543, (2‐thien‐2‐ylphenyl)methanol]",56.5
18,"OCc1ccc(-c2ccsc2)cc1 [compound 545, (4‐thien‐3‐ylphenyl)methanol]",87.2
19,"Cc1nc(-c2cccc(N)c2)cs1 [compound 546, 3‐(2‐methyl‐1,3‐thiazol‐4‐yl)aniline]",61.9
20,"NC1CCN(Cc2ccccc2)CC1 [compound 548, 1‐benzylpiperidin‐4‐amine]",89.3

row,Compound,viability at 500 µM [%]
1,"Cc1cccc(N2CCNCC2)c1C [compound 549, 1‐(2,3‐dimethylphenyl)piperazine]",13.6
2,"OCc1csc(-c2ccccc2)n1 [compound 557, (2‐phenyl‐1,3‐thiazol‐4‐yl)methanol]",78.4
3,"COc1ccccc1C1CCNCC1 [compound 560, 4‐(2‐methoxyphenyl)piperidine]",63.7
4,"CN1CCN(c2ccc(N)cc2)CC1 [compound 562, 4‐(4‐methylpiperazino)aniline]",17.5
5,"Nc1nc(-c2ccc(O)cc2)cs1 [compound 565, 4‐(2‐amino‐1,3‐thiazol‐4‐yl)phenol]",61.6
6,"NS(=O)(=O)c1ccc(F)cc1F [compound 576, 2,4‐difluorobenzenesulfonamide]",12.9
7,"Oc1ccc(SC(F)(F)F)cc1 [compound 584, 4‐[(trifluoromethyl)thio]phenol]",68.4
8,"CCOC(=O)CCc1ccc(O)cc1 [compound 585, ethyl 3‐(4‐hydroxyphenyl)propanoate]",61.7
9,"O=C(O)CC12CC3CC(CC(C3)C1)C2 [compound 588, 2‐(1‐adamantyl)acetic acid]",85.4
10,"OCc1csc2ccc(Cl)cc12 [compound 608, (5‐chloro‐1‐benzothiophen‐3‐yl)methanol]",63.8
11,"O=C(O)c1ccc(-c2cccnc2)cc1 [compound 612, 4‐pyrid‐3‐ylbenzoic acid]",74.2
12,"Nc1cccc(COc2ccccc2)c1 [compound 616, 3‐(phenoxymethyl)aniline]",57.5
13,"OCc1ccccc1Oc1ccccc1 [compound 621, (2‐phenoxyphenyl)methanol]",73.7
14,"OCc1ccc(Oc2ccccc2)cc1 [compound 622, (4‐phenoxyphenyl)methanol]",70.7
15,"Nc1ncccc1OCc1ccccc1 [compound 624, 3‐(benzyloxy)pyridin‐2‐amine]",82.7
16,"OCc1ccc(Oc2ccccn2)cc1 [compound 629, [4‐(pyrid‐2‐yloxy)phenyl]methanol]",96.1
17,"OCc1cccc(Oc2ccccn2)c1 [compound 630, [3‐(pyrid‐2‐yloxy)phenyl]methanol]",98.3
18,"NC(=S)COc1cccc(Cl)c1 [compound 633, 2‐(3‐chlorophenoxy)ethanethioamide]",90.3
19,"N#CC(c1ccccc1)N1CCOCC1 (centres unmarked) [compound 638, 2‐morpholino‐2‐phenylacetonitrile]",89.8

# Same assay, conditions: Supplementary Table 1; compound 0.5 mM; percentage of controls (n=1)
row,Compound,A549 Cells Alamar Blue
1,"CC(=O)c1ccc(-n2ccnc2)cc1 [compound 503, 1‐[4‐(1H‐imidazol‐1‐yl)phenyl]‐1‐ethanone]",94.5 percentage of controls
2,"Cc1c(CO)cnn1-c1ccccc1 [compound 523, (5‐methyl‐1‐phenyl‐1H‐pyrazol‐4‐yl)methanol]",57.2 percentage of controls
3,"Cn1nc(-c2ccccc2)cc1CO [compound 524, (1‐methyl‐3‐phenyl‐1H‐pyrazol‐5‐yl)methanol]",60.7 percentage of controls
4,"Cn1nc(CO)cc1-c1ccccc1 [compound 525, (1‐methyl‐5‐phenyl‐1H‐pyrazol‐3‐yl)methanol]",64.6 percentage of controls
5,"OCc1cccc(Cn2ccnc2)c1 [compound 527, [3‐(1H‐imidazol‐1‐ylmethyl)phenyl]methanol]",69.2 percentage of controls
6,"OCc1ccc(Cn2ccnc2)cc1 [compound 528, [4‐(1H‐imidazol‐1‐ylmethyl)phenyl]methanol]",81.2 percentage of controls
7,"OCc1ccc(Cn2cccn2)cc1 [compound 529, [4‐(1H‐pyrazol‐1‐ylmethyl)phenyl]methanol]",94 percentage of controls
8,"Cn1ncc(CO)c1-c1ccccc1 [compound 530, (1‐methyl‐5‐phenyl‐1H‐pyrazol‐4‐yl)methanol]",109.5 percentage of controls
9,"COC(=O)c1scc(C)c1Cl [compound 551, methyl 3‐chloro‐4‐methylthiophene‐2‐carboxylate]",104.9 percentage of controls
10,"Cn1nc(CO)cc1-c1cccs1 [compound 586, (1‐methyl‐5‐thien‐2‐yl‐1H‐pyrazol‐3‐yl)methanol]",63.4 percentage of controls
11,"CC(=O)c1cc2cc(Cl)ccc2o1 [compound 589, 1‐(5‐chlorobenzo[b]furan‐2‐yl)ethan‐1‐one]",99.5 percentage of controls
12,"Cc1nc(-c2ccccc2)ncc1CO [compound 623, (4‐methyl‐2‐phenyl‐5‐pyrimidinyl)methanol]",85.4 percentage of controls
13,"Cc1nn(-c2ccccc2)c(C)c1CO [compound 636, (3,5‐dimethyl‐1‐phenyl‐1H‐pyrazol‐4‐yl)methanol]",94.9 percentage of controls

# System: HeLa cells
# Experiment: cells
# Conditions: Homo sapiens, HeLa, 65 h, read-out: HeLa Cells Alamar Blue
# Procedure, shortened: as §1
row,Compound,viability at 500 µM [%]
1,"FC(F)(F)c1nc2ccccc2[nH]1 [compound 499, 2‐(trifluoromethyl)‐1H‐benzo[d]imidazole]",82 ± 14.1
2,"N#Cc1ccc(N)cc1C(F)(F)F [compound 500, 4‐amino‐2‐(trifluoromethyl)benzonitrile]",51 ± 10.6
3,"OCc1cccc(-c2cncnc2)c1 [compound 504, (3‐pyrimidin‐5‐ylphenyl)methanol]",88.7 ± 9.9
4,"OCc1ccc(-c2cncnc2)cc1 [compound 505, (4‐pyrimidin‐5‐ylphenyl)methanol]",78.6 ± 20
5,"Nc1ccc(Oc2ccccc2)nc1 [compound 507, 6‐phenoxy‐3‐pyridinamine]",103 ± 15.4
6,"O=C(O)c1ccc(-n2cccc2)cc1 [compound 512, 4‐(1H‐pyrrol‐1‐yl)benzoic acid]",97.5 ± 13.1
7,"COC(=O)c1cc2ccccc2cn1 [compound 514, methyl isoquinoline‐3‐carboxylate]",79.5 ± 14.3
8,"COC(=O)c1ccc2ncccc2c1 [compound 515, methyl quinoline‐6‐carboxylate]",69.9 ± 8.1
9,"N#Cc1ccc(N2CCNCC2)cc1 [compound 518, 4‐Piperazin‐1‐yl‐benzonitrile]",92.1 ± 11
10,"NC(=O)Cc1ccc(F)cc1Cl [compound 519, 2‐(2‐chloro‐4‐fluorophenyl)acetamide]",98.3 ± 15.4
11,"OCc1nccn1Cc1ccccc1 [compound 526, (1‐benzyl‐1H‐imidazol‐2‐yl)methanol]",81 ± 13.3
12,"Cc1onc(-c2ccccc2)c1CO [compound 534, (5‐methyl‐3‐phenyl‐4‐isoxazolyl)methanol]",78.8 ± 15.6
13,"O=C(O)c1ccc(C(F)(F)F)cc1 [compound 539, 4‐(trifluoromethyl)benzoic acid]",92.4 ± 8.2
14,"OCc1ccc(Oc2ccccc2)o1 [compound 540, (5‐phenoxy‐2‐furyl)methanol]",13.7 ± 6.5
15,"CN(C)CCOc1ccc(C#N)cc1 [compound 542, 4‐[2‐(dimethylamino)ethoxy]benzonitrile]",91.6 ± 9.5
16,"OCc1ccccc1-c1cccs1 [compound 543, (2‐thien‐2‐ylphenyl)methanol]",73.9 ± 3.7
17,"OCc1ccc(-c2ccsc2)cc1 [compound 545, (4‐thien‐3‐ylphenyl)methanol]",84.3 ± 13.2
18,"Cc1nc(-c2cccc(N)c2)cs1 [compound 546, 3‐(2‐methyl‐1,3‐thiazol‐4‐yl)aniline]",68.5 ± 8.2

row,Compound,viability at 500 µM [%]
1,"NC1CCN(Cc2ccccc2)CC1 [compound 548, 1‐benzylpiperidin‐4‐amine]",39.5 ± 10
2,"Cc1cccc(N2CCNCC2)c1C [compound 549, 1‐(2,3‐dimethylphenyl)piperazine]",10.1 ± 5.7
3,"OCc1csc(-c2ccccc2)n1 [compound 557, (2‐phenyl‐1,3‐thiazol‐4‐yl)methanol]",58.1 ± 13.4
4,"COc1ccccc1C1CCNCC1 [compound 560, 4‐(2‐methoxyphenyl)piperidine]",20.2 ± 2.8
5,"CN1CCN(c2ccc(N)cc2)CC1 [compound 562, 4‐(4‐methylpiperazino)aniline]",8.2 ± 6.5
6,"NS(=O)(=O)c1ccc(F)cc1F [compound 576, 2,4‐difluorobenzenesulfonamide]",10.7 ± 9.3
7,"Oc1ccc(SC(F)(F)F)cc1 [compound 584, 4‐[(trifluoromethyl)thio]phenol]",97.5 ± 15.9
8,"CCOC(=O)CCc1ccc(O)cc1 [compound 585, ethyl 3‐(4‐hydroxyphenyl)propanoate]",63.1 ± 3.9
9,"O=C(O)CC12CC3CC(CC(C3)C1)C2 [compound 588, 2‐(1‐adamantyl)acetic acid]",95.4 ± 14.1
10,"OCc1csc2ccc(Cl)cc12 [compound 608, (5‐chloro‐1‐benzothiophen‐3‐yl)methanol]",78.3 ± 1
11,"Nc1cccc(COc2ccccc2)c1 [compound 616, 3‐(phenoxymethyl)aniline]",80.5 ± 17.9
12,"OCc1ccccc1Oc1ccccc1 [compound 621, (2‐phenoxyphenyl)methanol]",74.9 ± 14.8
13,"OCc1ccc(Oc2ccccc2)cc1 [compound 622, (4‐phenoxyphenyl)methanol]",78.3 ± 15.4
14,"OCc1ccc(Oc2ccccn2)cc1 [compound 629, [4‐(pyrid‐2‐yloxy)phenyl]methanol]",84.1 ± 9.9
15,"OCc1cccc(Oc2ccccn2)c1 [compound 630, [3‐(pyrid‐2‐yloxy)phenyl]methanol]",80 ± 1
16,"NC(=S)COc1cccc(Cl)c1 [compound 633, 2‐(3‐chlorophenoxy)ethanethioamide]",46.9 ± 11.1
17,"N#CC(c1ccccc1)N1CCOCC1 (centres unmarked) [compound 638, 2‐morpholino‐2‐phenylacetonitrile]",80.5 ± 8.2

# Same assay, conditions: Homo sapiens, HeLa, 65 h, read-out: HeLa Cells Alamar Blue, Supplementary Table 1; compound 0.5 mM; percentage of controls; mean ± SD (n=3) or SE (n=2)
row,Compound,viability at 500 µM [%]
1,"Oc1ccc(Oc2ccccc2)cc1 [compound 502, 4‐phenoxyphenol]",39.6 ± 16.6
2,"Nc1nc(-c2ccc(O)cc2)cs1 [compound 565, 4‐(2‐amino‐1,3‐thiazol‐4‐yl)phenol]",57.7 ± 17.7
3,"O=C(O)c1ccc(-c2cccnc2)cc1 [compound 612, 4‐pyrid‐3‐ylbenzoic acid]",77.2 ± 5.7
4,"Nc1ncccc1OCc1ccccc1 [compound 624, 3‐(benzyloxy)pyridin‐2‐amine]",72.9 ± 14.8

# Same assay, conditions: Supplementary Table 1; compound 0.5 mM; percentage of controls; mean ± SD (n=3) or SE (n=2)
row,Compound,HeLa Cells Alamar Blue
1,"CC(=O)c1ccc(-n2ccnc2)cc1 [compound 503, 1‐[4‐(1H‐imidazol‐1‐yl)phenyl]‐1‐ethanone]",69.7 ± 7.3 percentage of controls
2,"Cc1c(CO)cnn1-c1ccccc1 [compound 523, (5‐methyl‐1‐phenyl‐1H‐pyrazol‐4‐yl)methanol]",75.9 ± 13.5 percentage of controls
3,"Cn1nc(-c2ccccc2)cc1CO [compound 524, (1‐methyl‐3‐phenyl‐1H‐pyrazol‐5‐yl)methanol]",88.2 ± 10.3 percentage of controls
4,"Cn1nc(CO)cc1-c1ccccc1 [compound 525, (1‐methyl‐5‐phenyl‐1H‐pyrazol‐3‐yl)methanol]",64.8 ± 9.8 percentage of controls
5,"OCc1cccc(Cn2ccnc2)c1 [compound 527, [3‐(1H‐imidazol‐1‐ylmethyl)phenyl]methanol]",80.7 ± 17.6 percentage of controls
6,"OCc1ccc(Cn2ccnc2)cc1 [compound 528, [4‐(1H‐imidazol‐1‐ylmethyl)phenyl]methanol]",90.8 ± 4.5 percentage of controls
7,"OCc1ccc(Cn2cccn2)cc1 [compound 529, [4‐(1H‐pyrazol‐1‐ylmethyl)phenyl]methanol]",85 ± 5.2 percentage of controls
8,"Cn1ncc(CO)c1-c1ccccc1 [compound 530, (1‐methyl‐5‐phenyl‐1H‐pyrazol‐4‐yl)methanol]",87.4 ± 6.2 percentage of controls
9,"COC(=O)c1scc(C)c1Cl [compound 551, methyl 3‐chloro‐4‐methylthiophene‐2‐carboxylate]",90.7 ± 10.3 percentage of controls
10,"Cn1nc(CO)cc1-c1cccs1 [compound 586, (1‐methyl‐5‐thien‐2‐yl‐1H‐pyrazol‐3‐yl)methanol]",82 ± 15.2 percentage of controls
11,"CC(=O)c1cc2cc(Cl)ccc2o1 [compound 589, 1‐(5‐chlorobenzo[b]furan‐2‐yl)ethan‐1‐one]",95.8 ± 12.5 percentage of controls
12,"Cc1nc(-c2ccccc2)ncc1CO [compound 623, (4‐methyl‐2‐phenyl‐5‐pyrimidinyl)methanol]",66.5 ± 11.6 percentage of controls
13,"Cc1nn(-c2ccccc2)c(C)c1CO [compound 636, (3,5‐dimethyl‐1‐phenyl‐1H‐pyrazol‐4‐yl)methanol]",73 ± 13.4 percentage of controls
